Assay results taken from patent publication US12065466B2, “Methods and compositions for protein sequencing” (Quantum-Si Incorporated, priority 2020, dated 2024).
“Also recorded” adds a separate entry of the source. Square brackets hold non-standard residues; d marks the D form. Ends that are not written are not given here. Lys(N3) = [N-]=[N+]=NCCCC[C@H](N)C(=O)O

Biological target: T1, rat aminopeptidase N (Rat APN) (Rattus norvegicus, UniProt P15684)
T1 sequence (P15684 1-965): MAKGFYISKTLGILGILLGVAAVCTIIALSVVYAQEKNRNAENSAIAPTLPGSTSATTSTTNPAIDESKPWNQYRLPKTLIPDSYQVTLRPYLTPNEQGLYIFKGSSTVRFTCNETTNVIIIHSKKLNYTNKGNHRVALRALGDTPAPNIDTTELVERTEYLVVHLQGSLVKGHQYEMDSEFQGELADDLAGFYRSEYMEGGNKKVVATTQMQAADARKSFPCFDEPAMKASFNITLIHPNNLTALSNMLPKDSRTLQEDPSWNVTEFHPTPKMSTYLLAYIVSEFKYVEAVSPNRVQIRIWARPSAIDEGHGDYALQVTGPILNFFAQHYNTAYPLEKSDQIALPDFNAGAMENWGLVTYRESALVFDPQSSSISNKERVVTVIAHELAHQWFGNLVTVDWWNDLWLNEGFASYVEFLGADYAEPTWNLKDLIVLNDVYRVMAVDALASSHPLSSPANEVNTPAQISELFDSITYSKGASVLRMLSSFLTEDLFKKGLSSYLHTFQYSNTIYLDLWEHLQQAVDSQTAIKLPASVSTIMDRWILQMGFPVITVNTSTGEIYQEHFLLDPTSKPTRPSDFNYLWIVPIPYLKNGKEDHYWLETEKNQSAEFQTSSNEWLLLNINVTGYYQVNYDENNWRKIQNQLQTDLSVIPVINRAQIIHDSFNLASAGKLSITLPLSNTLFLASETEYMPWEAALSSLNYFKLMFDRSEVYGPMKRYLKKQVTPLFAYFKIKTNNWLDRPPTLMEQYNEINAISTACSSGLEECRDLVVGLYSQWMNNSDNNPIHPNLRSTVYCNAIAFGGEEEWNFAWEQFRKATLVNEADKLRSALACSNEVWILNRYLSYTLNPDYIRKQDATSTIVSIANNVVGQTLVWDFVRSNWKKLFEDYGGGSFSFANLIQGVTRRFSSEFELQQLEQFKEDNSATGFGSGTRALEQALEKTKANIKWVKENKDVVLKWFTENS
Assay: Terminal amino acid cleavage of peptide-linker conjugates by Rat APN (LCMS)
Assay type: biochemical
Conditions: monitored by LCMS
Experimental: (§1) The peptide-linker conjugates were evaluated for amino acid cleavage at peptide N-termini by N-terminal aminopeptidases (Table 6, below).
(§2) The peptide-linker conjugates shown in Table 6 were incubated with either proline iminopeptidase (“PIP”) or rat aminopeptidase N (“Rat APN”), and peptide cleavage was monitored by LCMS. All other cleavage reactions were measured in a similar manner.

Substance | Cleaved by Rat APN
2: peptide-linker conjugate: KKMKKM{LYS(N3)} (SEQ ID NO. 224), oligo linker (KKMKKM[Lys(N3)]; also: oligo linker, attachment not given here) [Entry 2] | No
6: peptide-linker conjugate: FFMFFM{LYS(N3)} (SEQ ID NO. 228), oligo linker (FFMFFM[Lys(N3)]; also: oligo linker, attachment not given here) [Entry 6] | Yes
7: peptide-linker conjugate: AAMAAM{LYS(N3)} (SEQ ID NO. 229), oligo linker (AAMAAM[Lys(N3)]; also: oligo linker, attachment not given here) [Entry 7] | Yes
4: peptide-linker conjugate: KKMKKM{LYS(N3)} (SEQ ID NO. 226), PEG4 linker (KKMKKM[Lys(N3)]; also: PEG4 linker, attachment not given here) [Entry 4] | Yes
Entry 5: peptide-linker conjugate: DDMDDM{LYS(N3)} (SEQ ID NO. 227), oligo linker (DDMDDM[Lys(N3)]; also: oligo linker, attachment not given here) | Yes
3: peptide-linker conjugate: KKMKKM{LYS(N3)} (SEQ ID NO. 225), oligo-PEG linker (KKMKKM[Lys(N3)]; also: oligo-PEG linker, attachment not given here) [Entry 3] | No

System: proline iminopeptidase (PIP)
Assay: Terminal amino acid cleavage of peptide-linker conjugates by PIP (LCMS)
Assay type: biochemical
Conditions: monitored by LCMS
Experimental: as §1, §2

Substance | Cleaved by PIP
8: peptide-linker conjugate: FPFPFP{LYS(N3)} (SEQ ID NO. 230), oligo linker (FPFPFP[Lys(N3)]; also: oligo linker, attachment not given here) [Entry 8] | Yes
9: peptide-linker conjugate: DPDPDP{LYS(N3)} (SEQ ID NO. 231), oligo linker (DPDPDP[Lys(N3)]; also: oligo linker, attachment not given here) [Entry 9] | Yes
11: peptide-linker conjugate: KPKPKP{LYS(N3)} (SEQ ID NO. 233), PEG4 linker (KPKPKP[Lys(N3)]; also: PEG4 linker, attachment not given here) [Entry 11] | Yes
10: peptide-linker conjugate: KPKPKP{LYS(N3)} (SEQ ID NO. 232), oligo linker (KPKPKP[Lys(N3)]; also: oligo linker, attachment not given here) [Entry 10] | No

System: amino acid at a terminal position of a polypeptide
Assay: not given
Conditions: Table 2; amino acid identity at a terminal position (phosphotyrosine also internal); inferred from literature and/or demonstrated by the inventors; cited from earlier work

Substance | Binding Pref.
H. sapiens p62 fragment 1-310: SEQ ID NO: 120 | K, R, H,; also recorded: W, F, Y
H. sapiens p62 fragment 126-180: SEQ ID NO: 122 | K, R, H,; also recorded: W, F, Y
Rattus norvegicus p62 protein: SEQ ID NO: 124 | K, R, H,; also recorded: W, F, Y
H. sapiens Src tyrosine kinase SH2 domain: SEQ ID NO: 118 | phospho-Y
H. sapiens p62 fragment 1-180: SEQ ID NO: 121 | K, R, H,; also recorded: W, F, Y
